# From US20230255954A1, “INTERLEUKIN 33 (IL-33) INHIBITION FOR TREATMENT OF CANCER, FIBROSIS AND INFLAMMATION” (The General Hospital Corporation, priority 2020, published 2023)
# System: p-IRF3 bindings to Il33 promoter region
# Assay: ChIP assay, p-IRF3 binding to Il33 promoter region in Pam212 cells
# Type: cell-based, mouse
# Settings: compared to only Poly (I:C) treated group
# Method: Pam212 cells that had been transfected with plasmids were fixed in 1% formaldehyde (Millipore Sigma, catalog no. F8775) for 10 min and were washed by cold PBS. Cells were lysed with buffer contained with 2.5% of glycerol, 50 mM HEPES (pH 7.5), 150 mM NaCl, 0.5 mM EDTA, 0.5% NP-40 and 0.25% Triton X-100. After centrifugation at 2,000 rpm, cells lysate were resuspended in buffer A contained with 1 mM Tris/HCl (pH 7.9), 20 mM NaCl and 0.5 mM EDTA and incubated at room temperature for 10 min. Following the second centrifugation at 2,000 rpm, cells were sonicated in sonication buffer containing 10 mM HEPES, 1 mM EDTA and 0.5% SDS for 30 min to achieve chromatin fragmentation. Following centrifugation at 13,000 rpm, proteins were immunoprecipitated with HA antibody at 4° C. overnight. Next day, the samples were incubated with 30 μL 50% slurry of ChIP-Grade Protein G agarose beads (Cell Signaling Technology, catalog no. 9007S) for 2 hours. Samples were precipitated, washed three times with wash buffer containing 20 mM Tris/HCl (pH 7.9), 10 mM NaCl, 2 mM EDTA, 0.1% SDS and Triton X-100. After the last wash step, samples were eluted with 100 μL of TE buffer contained with 100 mM Tris/HCl (pH 8), 1 mM EDTA and 1% SDS for three times. […] Precipitated DNA was purified by CMP DNA Clean & Concentrator (ZYMO research, Irvine, Calif., catalog no. D5205) and subjected to quantitative PCR. […]
smiles,measurement,value
O=C(O)C[C@H](O)C[C@H](O)/C=C/c1c(C2CC2)nc2ccccc2c1-c1ccc(F)cc1 [pitavastatin],Poly (I:C) induced p-IRF3 bindings to Il33 promoter region,significantly reduced
